Here are results for three compounds from patent publication US6911469B2, “Sulfonamide compounds and pharmaceutical use thereof” (Fujisawa Pharmaceutical Co., Ltd., priority 1997, dated 2005).

The test system of one data set is female db/db mice. As to the kind of experiment: blood sugar level depressing activity in dd/db mice. The data set is classed as in vivo. The settings on record: dose 10 mg/kg, drug mixed with powder diet, given for 14 days, difference between db/db control group and +/+ mice taken as 100%. As for the experimental part:
(blood sugar level depressing activity in dd/db mice)
Female C57BL/KsJ-dbm db+/db+, C57BL/KsJ-dbm +m/+m (Jackson Laboratory) mice (5 weeks old) were purchased and subjected to the test after 2-3 weeks of acclimating period.
The test drug was mixed with a powder diet (CE-2, Clea Japan, Inc.) in a mortar. In the case of administration in 100 mg/kg, the mixing proportion of the test drug to the diet was 0.1%, in the case of 30 mg/kg, the proportion was 0.03% and in the case of 10 mg/kg, the proportion was 0.01%. The diet was changed twice a week. The amount of the diet given and the amount left were recorded and the diet intake was calculated by determining the difference.
The female db/db mice were grouped according to body weight, blood sugar level and triglceride concentration in blood. […] The blood sugar value, triglyceride concentration in plasma and insulin concentration in plasma were measured at day 0 and day 14, and blood sugar value and triglyceride concentration in blood were measured at day 7. Body weight was measured at day 0, day 7 and day 14. […]
Blood sugar value was measured using 10-15 μl of plasma and in accord with glucose oxidase method glucose CII-test Waco, Waco Pure Chemicals Co., Ltd.). […] The insulin concentration in plasma was measured using 20 μl of plasma (preservable at −20° C.) and in accord with an antibody method (Phadesef Insulin RIA kit, Kabi Pharmacia). […]

In the case of `CCCCCS(=O)(=O)NC(=O)c1ccc2oc(C)c(Cc3ccc(Cl)cc3Cl)c2c1` [Compound A, 3-(2,4-Dichlorobenzyl)-2-methyl-5-(1-n-pentanesulfonylcarbamoyl)-benzo[b]furan], the “Blood sugar decrease (%)” value in the data set on female db/db mice came to 71%.

As a reminder, the melting point is the temperature, or range, at which the solid turns liquid. Regarding `CCCCCS(=O)(=O)NC(=O)c1cc(C)c2nc(C)n(Cc3ccc(-c4ccc(Cl)s4)cc3Cl)c2n1` [Example 193, 3-[2-chloro-4-(5-chlorothiophen-2-yl)benzyl]-2,7-dimethyl-5-(1-pentanesulfonylcarbamoyl)-3H-imidazo[4,5-b]pyridine], the melting point lay in the range of 215 to 217 °C.

Consider `Cc1cc(C(=O)NS(=O)(=O)/C=C/c2ccccc2)nc2c1nc(C)n2Cc1ccc(-c2ccc(Cl)s2)cc1Cl` [Example 196, 3-[2-chloro-4-(5-chlorothiophen-2-yl)benzyl]-2,7-dimethyl-5-[(E)-(2-phenylethenyl)sulfonylcarbamoyl]-3H-imidazo[4,5-b]pyridine], for which the melting point is 224 to 225 °C.
